Reference: patent publication US20150306011A1, “METHODS FOR USING SOY PEPTIDES TO INHIBIT H3 ACETYLATION, REDUCE EXPRESSION OF HMG-COA REDUCTASE AND INCREASE LDL RECEPTOR AND SP1 EXPRESSION IN A MAMMAL” (priority 2014, published 2015)
“Also recorded” adds a separate entry of the source.

Columns and labels:
[1] = cited from earlier work
[2] = test system: histone H3 acetylation by PCAF; assay: PCAF histone acetylase (HAT) assay, core histones from HeLa cells as template, immunoblot; type: biochemical
Method: Acid extracted protein from untreated (untrt) HeLa cells was used as template in histone acetylase reactions using HAT enzyme, PCAF, in the presence or absence of 10 uM lunasin. Reaction products were immunoblotted and stained with antibodies against diacetylated histone H3. Untrt (−) is the histone template control, NaB (+) correspond to acid extracted histones from NaButyrate treated HeLa cells (positive control). […] Numbers in parenthesis indicate densitometer readings relative to the untreated control (set as 1) in PCAF HAT reaction products.
Acid extracted histones isolated from untreated (untrt) HeLa cells were used in PCAF HAT reactions, immunoblotted and stained with antibodies to H3 Ac-Lys9 and H3 Ac-Lys14. Untrt (−) is the histone template control, NaB (+) correspond to acid extracted histones from NaButyrate treated HeLa cells (posititve control), +Lun correspond to 10 uM lunasin treated histone template and −Lun correspond to non-lunasin treated. […] Numbers in parenthesis indicate densitometer readings relative to the signal level of lunasin/lunasin treatment (set as 1) in immunoblots stained with Ac-Lys14 H3.
[…] H3 histone acetylation by PCAF histone acetylase enzyme is required for the SREBP activation of genes involved in cholesterol biosynthesis including HMG-CoA reductase (9). Previous study has shown that lunasin is a potent inhibitor of histone H3 acetylation in mammalian cells exposed to the histone deacetylase inhibitor, sodium butyrate (NaB) (4). To determine the effect of lunasin on histone H3 acetylation by PCAF, HAT assay reaction using acid-extracted histones from untreated HeLa cells as template was conducted. […]
The HAT bioactivity assay was conducted using acid extracted core histones from HeLa cells (Upstate/Millipore) as a template (temp (−) control) for the PCAF catalyzed HAT reaction. […] The numbers below the legend indicate relative densitometer readings normalized using immunosignal from the template (temp). […]

[3] = test system: HMG-CoA reductase expression in HepG2 cells; assay: Western blot of HMG-CoA reductase expression in HepG2 cells in cholesterol-free media; type: cell-based; settings: 10 uM synthetic lunasin, 24 hours, cholesterol-free media 24 hours
Method: (§1) FIG. 2 is a photograph of a Western blot analysis (top) and a table (below) showing densitometer values indicating the relative levels of expression of HMG-CoA reductase in HepG2 cells that were (CFM+LS (24)) or were not (CFM) treated with lunasin for 24 hours prior to incubation in cholesterol free media (CFM) for 24 hours to activate sterol regulatory element binding proteins (SREBP.) After incubations, total protein was extracted and 10 ug protein was loaded onto 10% Tris-glycine gels, electroblotted onto nitrocellulose membrane, and immunostained with primary antibodies raised against HMG-CoA reductase and actin (to show equal loading of proteins.) Spot densitometer values represent mean and standard deviation of data from three separate experiments.
In the first experiment, HepG2 cells (1×10^6) were treated with or without 10 uM synthetic lunasin in DMEM with 10% FBS for 24 hours before growth media was replaced with cholesterol-free media to activate SREBP. After 24 hours, total protein was extracted and 10 ug protein was loaded onto 10% Tris-glycine gels, electroblotted onto nitrocellulose membrane, and immunostained with primary antibodies raised against HMG-CoA reductase and actin (to show equal loading of proteins). […]

[4] = test system: tumor formation in mammalian cells; settings: 1,000 nM (5 μg/ml) to 10,000 nM (50 μg/ml) lunasin; cited from earlier work
[5] = test system: LDL-receptor expression in HepG2 cells; assay: Western blot of LDL receptor expression in HepG2 cells in cholesterol-free media; type: cell-based; settings: 10 uM synthetic lunasin, 24 hours, cholesterol-free media 24 hours
Method: as §1, with “FIG. 3” for “FIG. 2”, “of LDL receptor” for “of HMG-CoA reductase”, “were (CFM +LS(24))” for “were (CFM+LS (24))”, “activate SREBP.” for “activate sterol regulatory element binding proteins (SREBP.)”, “against LDL-receptor” for “against HMG-CoA reductase”
In the second experiment, HepG2 cells (1×10^6) were treated with or without 10 uM synthetic lunasin in DMEM with 10% FBS for 24 hours before growth media is replaced with cholesterol-free media to activate SREBP. After 24 hours, total protein was extracted and 10 ug proteins loaded onto 10% Tris-glycine gels, electroblotted onto nitrocellulose membrane, and immunostained with primary antibodies raised against LDL-receptor and actin (to show equal loading of proteins). Spot densitometer values were obtained by digital scanning and Un-Scan It software, and represent mean and standard deviation of data from three separate experiments.

[6] = test system: Sp1 expression in HepG2 cells; assay: Western blot of Sp1 levels in HepG2 cells; type: cell-based; settings: 10 uM synthetic lunasin, one experiment
Method: FIG. 4 is a photograph of a Western blot analysis (top) and a table (below) showing densitometer values indicating the relative levels of expression of Sp1 in HepG2 cells that were grown from confluence in growth media for 24 hours before growth media was replaced with fresh growth media (Media), media with lunasin (Media+LS) or cholesterol free media with lunasin (CFM+LS) or without lunasin (CFM). Samples were then incubated for 24 or 48 hours as indicated. […]
Unlike HMG-CoA reductase, SREBP activation of LDL-receptor by sterol depletion requires increased recruitment of Sp1 co-activator to a site adjacent to SREBP in the promoter/regulatory sequence of LDL-receptor gene (25). […] To test this hypothesis, the level of Sp1 was determined in lunasin-treated growth media and cholesterol-free media by Western analysis using Sp1 antibody, as follows: HepG2 cells (1×10^6) were grown from confluence in DMEM with 10% FBS for 24 hours before growth media was replaced with fresh growth media or cholesterol-free media (to activate SREBP) and treated with, or without 10 uM synthetic lunasin. […]

[7] = test system: histone H3 acetylation by PCAF; assay: PCAF HAT bioactivity assay, core histones from chicken erythrocyte as template; type: biochemical; settings: around 10 ug sample protein with 1 ug core histones; versus untreated control
Method: Lunasin-enriched soy concentrate with soy flour (LeSC+SF) retains bioactivity even when digested with digestive enzymes. Biological activity of LeSC (A), LeSC+SF (B), digested LeSC+SF (C), digested LeSC (D), digested soy protein isolate (E) and digested soy concentrate (F) was measured using the H3 histone acetyltransferase (HAT) assay (see Example 8.) Around 100 mg total protein of LeSC, LeSC+SF, soy protein isolate and soy concentrate were digested by mixing pancreatin (Sigma Life Sciences, Saint Louis, Mo.) at 1:1 (w/w) and incubating for 30 min. at 40° C. To confirm that the HAT assay is working, treatment with synthetic lunasin (+synL) was included. Synthetic lunasin reduced acetylation of histone H3 by the histone acetylase enzyme, PCAF, using core histones isolated from chicken erythrocyte (Upstate/Millipore, Billerica, Mass.) as template for the HAT assay. […]
Core histones purified from chicken erythrocyte cells were used as templates in histone acetylase (HAT) reactions using PCAF histone acetylase enzyme, in the presence or absence of around 2-10 uM lunasin. […] Chemiluminescent signals from antibody complexes were visualized using standard chemiluminescent reagents and exposed to Kodak BioMAX film, developed and spot densitometer measured by using digital scanner and UN-SCAN-IT software program from Silk Scientific (Orem, Utah).

[8] = 10 uM lunasin, acid-extracted histones from untreated HeLa cells

lunasin: natural, synthetically or recombinantly obtained soybean lunasin polypeptide (SEQ. ID. 2), small subunit of a cotyledon-specific 2S albumin
water solubility [1]: water soluble | H3 Lys 14 acetylation by PCAF (antibodies to H3 Ac-Lys9 and H3 Ac-Lys14) [2, 8]: decreased H3 Lys 14 acetylation; also recorded: specifically binds to Lys 14, preventing it from being acetylated by PCAF | histone H3 acetylation (diacetylated H3, Ac-Lys9+Ac-Lys14) by PCAF [2, 8]: significant decrease in H3 acetylation; also recorded: dramatic reduction of histone H3 acetylation | H3 acetylation by PCAF, undigested samples (Example 6) ([2]; core histones from HeLa cells as template): significant reduction in H3 acetylation | reduction of HMG-CoA reductase expression [3]: more than 50% | tumor reduction activity compared to the control group [4]: statistically significant tumor reduction activity | increase of LDL-receptor expression [5]: more than 60% | increase of Sp1 levels in cholesterol-free media ([6]; cholesterol-free media): ~60% | Sp1 levels, lunasin-treated versus control growth media ([6]; growth media): not significantly different | H3 acetylation by PCAF, undigested samples (Example 5) [7]: significant reduction in H3 acetylation
